Experimental findings from ChEMBL document CHEMBL5584237, “Design, synthesis, biological evaluation, and in silico studies of novel pyridopyridine derivatives as anticancer candidates targeting FMS kinase” (Eur J Med Chem, 2024) are described below.

Each structure is given as a SMILES string.

Series [1] is described as follows: Selectivity index, ratio of IC50 for human WI-38 cells to IC50 for human HCT-15 cells.
The subject of another series is HepG2. The series can be described thus: cells. The note with it: Homo sapiens, HepG2, 48 h.
Series [2] is described as follows: Selectivity index, ratio of IC50 for human WI-38 cells to IC50 for human HT-29 cells. The note with it: WI-38 cells and HT-29 cells, read-out: Ratio IC50. The series is classed as toxicity.
For a further series, the system named is MCF7. The series can be described thus: Antiproliferative activity against human MCF7 cells assessed as cell growth inhibition. It counts as functional.
The test system of the next series is Malme-3M. The experiment in a line: Antiproliferative activity against human Malme-3M cells assessed as cell growth inhibition. It counts as functional.
Series [3] is described as follows: Selectivity index, ratio of IC50 for human WI-38 cells to IC50 for human Malme-3M cells.
The subject of another series is MDA-MB-231. The experiment in a line: Antiproliferative activity against human MDA-MB-231 cells assessed as cell growth inhibition. It counts as functional.
Series [4] in a line: Selectivity index, ratio of IC50 for human HS27 cells to IC50 for human DU-145 cells.

Description for HepG2: Antiproliferative activity against human HepG2 cells assessed as cell growth inhibition measured after 48 hrs by MTT assay

Broadly, the IC50 is the concentration that inhibits the measured activity by half. Read a low IC50 as greater potency. As usually defined, the GI50 is the concentration giving 50% growth inhibition. The term TGI denotes the concentration at which net growth stops. As to `CCN1CCN(c2ccc(NC(=O)Nc3ccc(-c4cc(C(=O)NC(C)C)c5ncccc5n4)cc3)cc2C(F)(F)F)CC1`, the “Ratio IC50” value in series [1] came out at 18.84; in series [3], 8.62; in series [4], 11.2. Moreover, in the series with HepG2, the IC50 was found to be 460 nM. Further, the selectivity ratio in series [2] was 18.8. Further, the GI50 turned out to be 630 nM with MCF7, 580 nM with Malme-3M and 610 nM with MDA-MB-231. In addition, the values for the concentration for total growth inhibition (TGI) with MCF7, in the series on Malme-3M and in the series on MDA-MB-231 were 1500 nM, 1050 nM and 1180 nM, respectively.
